Reference: publication PMC11513924, “Addressing the Intracellular Vestibule of the Plasmodial Lactate Transporter PfFNT by p-Substituted Inhibitors Amplifies In Vitro Activity” (Journal of Medicinal Chemistry, 2024)
Like-named read-outs stand apart in the source and are kept apart here.

Tests used:
PfFNT [1] = target: T1, PfFNT (Plasmodium falciparum, UniProt O77389); assay: Fluorescence cross-correlation spectroscopy (FCCS) competition binding to solubilized PfFNT-GFP
T1 construct: expressed in transfected cells; membranes solubilized
T1 sequence (O77389 1-309): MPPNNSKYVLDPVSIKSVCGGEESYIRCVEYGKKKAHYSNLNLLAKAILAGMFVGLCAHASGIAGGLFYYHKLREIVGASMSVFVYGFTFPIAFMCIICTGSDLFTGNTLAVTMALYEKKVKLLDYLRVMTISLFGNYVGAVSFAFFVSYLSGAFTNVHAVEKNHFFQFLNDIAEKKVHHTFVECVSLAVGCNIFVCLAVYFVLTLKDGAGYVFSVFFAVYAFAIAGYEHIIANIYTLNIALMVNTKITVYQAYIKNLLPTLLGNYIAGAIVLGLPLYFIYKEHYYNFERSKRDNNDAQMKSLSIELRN
In short: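 Solubilized membranes from stably transfected cells expressing C-terminally GFP-tagged PfFNT were competed against BH267.meta-DY647 tracer, with competitor titrated from 100 pM to 100 μM. IC50 came from the dual-labeled complex concentration, recorded 10 × 5 s with 488/633 nm excitation; Ki calculated by Cheng-Prusoff from the tracer KD.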

PfFNT [2] = target: T1, PfFNT; assay: Yeast-based PfFNT 14C-lactate transport assay; assay type: cell-based
Protocol: Lactate transport functionality of PfFNT was assayed as described before.[4] Briefly, Saccharomyces cerevisiae W303-1A jen1Δady2Δcells[32] (MATa, can1-100, ade2-loc, his3-11-15, leu2-3,-112, trp1-1-1, ura3-1, jen1::kanMX4, ady2::hphMX4) kindly provided by M. Casal expressing PfFNT was grown at 29 °C to an OD600 of 1 (±0.1). Harvested cells were resuspended to an OD600 of 50 (±5) in 50 mM HEPES/Tris, pH 6.8 (±0.1). 10–15 min prior to the assay, 80 μL of yeast suspension were added to 1 μL of DMSO with or without inhibitor in a 1.5 mL reaction tube at 18 °C. Twenty μL of L-lactate solution spiked with [1-^14C]-L-lactate (Hartmann Analytic) was added yielding a 1 mM inward gradient with 0.04 μCi label. Transport was stopped after 30 s by abrupt dilution with 1 mL of ice-cold water, vacuum filtration via GF/C filter membranes (Whatman), and washing with 7 mL of ice-cold water. The radio label was analyzed by liquid scintillation counting in 3 mL of scintillation cocktail (Rotiszint eco plus, Carl Roth) using a Packard TriCarb 2900 TR (PerkinElmer Inc.).
Transport assays in yeast were done in triplicate biological replicates. At least nine technical replicates were measured around the IC50 value, concentrations with no or full inhibition were determined from at least three technical replicates. EC50-values were determined from 2 to 4 biological replicates. IC50 and EC50 curves were fitted by the Hill equation with variable slope (Graph Pad Prism 10). Error bars denote ± SEM (for n ≥ 3) or ± range (for n = 2). For the EC50-value of 7a the error of the fitting of the curve is given. Cytotoxicity was determined from biological triplicates; error is shown as SEM.

P. berghei = P. berghei mouse model, 4 day Peters' test; assay type: in vivo, Plasmodium berghei (mice)
Protocol: The animal experiments against P. berghei were carried out at the Swiss Tropical and Public Health Institute adhering to local and national regulations of laboratory animal welfare in Switzerland (awarded permission no. BL530). Protocols are regularly reviewed and revised following approval by the local authority (Amt für Lebensmittelsicherheit and Veterinärwesen Basel-Land). Female mice infected with GFP-expressing P. berghei (ANKA strain, donated by A. P. Waters and C. J. Janse, Leiden University, The Netherlands) were analyzed for in vivo efficacy of 7e and 8a as described previously.[18],[19] Parasitemia was determined using flow cytometry with a detection limit of 1 parasite in 1000 erythrocytes. Compound activity was calculated as the difference between the mean parasitemia for the control and treated groups (n = 3, each) expressed relative to the control group. 7e and 8a were suspended in 70/30 Tween 80/ethanol, diluted 10-fold with water and administered orally 4, 24, 48, and 72 h after infection. 7e was analyzed at 30, 10, and 3 mg kg^–1, 8a at 50, and 10 mg kg^–1. In vivo efficacy against P. falciparum was conducted at The Art of Discovery, TAD, Bizkaia, Spain, according to the previously described standard assay.[16],[17]

[3] = Microsomal clearance and half-life; assay type: in vitro ADME, human; settings: for human liver microsomes Clint / half-life at 1 µM: 1 μM compound, 0.4 mg mL^–1 protein; for half-life at 1 µM: human, pooled human liver microsomes, pH 7.4, read-out: human liver microsomes t1/2
Protocol: Clearance, half-life and plasma protein binding were assayed at TGC LifeScience, Kolkata, India, as described before.[36] Test compounds were incubated in duplicate in 96-well plates at 1 μM concentration with pooled human liver microsomes in 0.1 M phosphate buffer, pH 7.4 (0.4 mg mL^–1 final protein concentration; XenoTech, Lenexa, KS) in the presence and absence of 1 mM NADPH. Metabolism reactions were stopped by addition of 300 μL of ice-cold acetonitrile containing carbamazepine at 0.0236 μg mL^–1 as an internal standard, collection and analysis of the supernatant by LC–MS/MS (Agilent Rapid Resolution HPLC, AB SCIEX 4500 MS). The relative loss of the test compound over time was used to determine the first order rate constant for calculation of the in vitro intrinsic clearance and half-life.[37] Plasma protein binding was determined by ultracentrifugation from pooled human plasma spiked with 5 μM test compound. Aliquots were transferred immediately (total plasma concentration) or after 1 h at 37 °C (protein bound fraction) to ice-cold acetonitrile containing 0.0236 μg mL^–1 carbamazepine as an internal standard, ultracentrifuged for 4 h at 37 °C (Beckman Optima L-80XP), and analyzed by LC–MS/MS (Agilent Rapid Resolution HPLC, AB SCIEX 4500 QTRAP MS).

[4] = oral 10 mg kg^–1 day^–1, four consecutive days

SMILES | Ki (PfFNT [1]) [nM] | IC50 (PfFNT [2]; 14C-lactate transport, PfFNT wild type, read-out: IC50 (transport, yeast)) [nM] | activity (reduction of parasitemia relative to untreated) (P. berghei; oral 3 mg kg^–1 day^–1, four consecutive days) [%] | activity (reduction of parasitemia relative to untreated) (P. berghei; [4]) [%] | activity (reduction of parasitemia relative to untreated) (P. berghei; oral 30 mg kg^–1 day^–1, four consecutive days) [%] | human liver microsomes Clint [3] [mL min^–1 kg^–1] | half-life at 1 µM [3] [h] | IC50 (PfFNT [2]) [nM] | activity (parasites cleared) (P. berghei; oral 50 mg kg^–1 day^–1, four consecutive days) [%] | microsomal clearance, times faster than that of 2 ([3]; human liver microsomes) [times]
CCCNc1ccc(C(=O)/C=C(\O)C(F)(F)C(F)(F)F)cn1 [7e, 4,4,5,5,5-Pentafluoro-3-hydroxy-1-(6-(propylamino)pyridin-3-yl)pent-2-en-1-one] | 22 ± 8 | 200 ± 20 | 3.5 | 15.4 | 34.2 | 462.00 | 0.05 |  |  | 
CC(=O)Nc1ccc(C(=O)/C=C(\O)C(F)(F)C(F)(F)F)cn1 [8a, N-[5-(4,4,5,5,5-Pentafluoro-3-hydroxypent-2-enoyl)pyridin-2-yl]acetamide] | 35 ± 8 |  |  | 76.0 |  | 10.64 | 2.17 | 210 ± 10 | 99.7 | 2.7
